Source: patent publication US5278308A, “Iodine derivatives of tetrabenazine” (The Trustees of The University of Pennsylvania, priority 1992, dated 1994)
Where two headings read alike, the source gives them in different places.

Experiments:
[1] = Regional brain distribution in rats (dissection, iv injection); format: in vivo; conditions: for Str./Cb (% dose/gram ratio) / Regional brain uptake, Rem / Regional brain uptake, cerebellum / Regional brain uptake, cortex / Regional brain uptake, hippocampus / Regional brain uptake, striatum / tissue uptake at 5 min / tissue uptake at 20 min: rat
Protocol: Regional brain distribution of [^123 I]I-TBZ (with either a racemic mixture, peak A or B) in rats was obtained after an iv injection. By dissecting, weighing and counting samples from different brain regions (cortex, striatum, hippocampus and cerebellum), % dose/gram of the samples was calculated by comparing the sample counts with the counts of the diluted initial dose. The ratio of uptake in each region was obtained by dividing % dose/gram of each region with that of the cerebellum. The effect of tetrahydrobenazine on the uptake of peak A or peak B was investigated by pretreating the rats with the TBZ 3 mg/rat at 3 min before iv injection of [^123 I]I-TBZ. At 20 min. post injection the rats were dissected and the regional brain dissection was carried out as above.

[2] = Protein binding by TCA (10% rat plasma, 30 min, 37° C.); format: in vitro ADME; conditions: rat, 10% plasma, TCA precipitation
Protocol: One ml of 10% rat plasma was mixed with [^123 I]I-TBZ in a test tube and the mixture was incubated for 30 minutes at 37° C. To the mixture 0.4 mL of 10% trichloroacetic acid (TCA) was added. The test tube was centrifuged for 10 min. (4,000 rpm), and the top aqueous layer was removed to another test tube for counting The precipitate was washed with water (0.5 mL×2). The combined water and top aqueous layer was counted. The residual precipitate was also counted. The protein binding was obtained by dividing counts in precipitate with counts in aqueous layers.

[3] = Protein binding by Filter (50% rat plasma, Amicon micropartition system); format: in vitro ADME; conditions: rat, 50% plasma, 30 min, 37° C.
Protocol: One mL of rat plasma (50%) was mixed with [^123 I]I-TBZ in a test tube. After 30 min incubation at 37° C., 50 uL ×3 of liquid was removed as initial dose standard (I.D.); the rest was passed through an Amicon micropartition system (Amicon division, W. R. Grace, Danvers, Mass.) by centrifuging for 20 minutes (2,000 rpm) at 0° C. Four samples (50 uL each) were removed from the filtered solution and counted. The protein binding (% bound) was calculated by using the unit counts in filtrate divided by unit counts in ID.

[4] = Biodistribution in rats (iv injection); format: in vivo; conditions: rat, iv
Protocol: While under ether anesthesia, each rat was injected in the femoral vein with 0.2 mL saline solution containing [^123 I]I-TBZ (1-5uCi) either racemic mixture, peak-A or peak-B. The rats were sacrificed at various time points postinjection by cardiac excision. The tissues were weighed and the radioactivity was measured with a Canberra gamma counter (Model 5000). The percent dose per organ was calculated by a comparison of the tissue counts to suitably diluted aliquots of the injected material. Total activities of blood and muscle were calculated assuming that they were 7% and 40% of total body weight, respectively Results are presented in Tables 3, 4A and 4B.

[5] = 20 min, pretreated with TBZ 3 min before, n = 2
[6] = 120 min, listed as I-TBZ peak A

COc1cc2c(cc1OC)C1CC(O)(C=C[123I])C(CC(C)C)CN1CC2 (single isomer, unassigned) [Peak A]
Regional distribution / selectivity in rat brain (in words) [1]: significantly increased selective regional distribution
Str./Cb (% dose/gram ratio) ([1]; 5 min, listed as I-TBZ peak A): 1.09
Regional brain uptake, Rem ([1]; 20 min, listed as I-TBZ peak A): 0.395 ± 0.019 % Dose/g
Regional brain uptake, cerebellum ([1]; 20 min, listed as I-TBZ peak A): 0.362 ± 0.017 % Dose/g
Regional brain uptake, cortex ([1]; 20 min, listed as I-TBZ peak A): 0.420 ± 0.031 % Dose/g
Regional brain uptake, hippocampus ([1]; 20 min, listed as I-TBZ peak A): 0.414 ± 0.032 % Dose/g
Regional brain uptake, striatum ([1]; 20 min, listed as I-TBZ peak A): 0.479 ± 0.014 % Dose/g
Str./Cb (% dose/gram ratio) ([1]; 20 min, listed as I-TBZ peak A): 1.32
Str./Cb (% dose/gram ratio) [1, 5]: 1.12
Regional brain uptake, Rem ([1]; 60 min, listed as I-TBZ peak A): 0.229 ± 0.036 % Dose/g
Regional brain uptake, cerebellum ([1]; 60 min, listed as I-TBZ peak A): 0.225 ± 0.029 % Dose/g
Regional brain uptake, cortex ([1]; 60 min, listed as I-TBZ peak A): 0.234 ± 0.035 % Dose/g
Regional brain uptake, hippocampus ([1]; 60 min, listed as I-TBZ peak A): 0.230 ± 0.048 % Dose/g
Regional brain uptake, striatum ([1]; 60 min, listed as I-TBZ peak A): 0.271 ± 0.046 % Dose/g
Str./Cb (% dose/gram ratio) ([1]; 60 min, listed as I-TBZ peak A): 1.21
Regional brain uptake, Rem [1, 6]: 0.118 ± 0.022 % Dose/g
Regional brain uptake, cerebellum [1, 6]: 0.116 ± 0.026 % Dose/g
Regional brain uptake, cortex [1, 6]: 0.129 ± 0.019 % Dose/g
Regional brain uptake, hippocampus [1, 6]: 0.113 ± 0.041 % Dose/g
Regional brain uptake, striatum [1, 6]: 0.138 ± 0.022 % Dose/g
Str./Cb (% dose/gram ratio) [1, 6]: 1.19
tissue uptake at 5 min ([1]; brain remainder, 5 min, read-out: Regional brain uptake, Rem): 0.74 ± 0.063 %ID/g
tissue uptake at 20 min ([1]; brain remainder, 20 min, pretreated with TBZ 3 min before, n = 2, read-out: Regional brain uptake, Rem): 0.545 ± 0.047 %ID/g
tissue uptake at 5 min ([1]; cerebellum, 5 min, read-out: Regional brain uptake, cerebellum): 0.708 ± 0.044 %ID/g
tissue uptake at 20 min ([1]; cerebellum, 20 min, pretreated with TBZ 3 min before, n = 2, read-out: Regional brain uptake, cerebellum): 0.534 ± 0.032 %ID/g
tissue uptake at 5 min ([1]; cortex, 5 min, read-out: Regional brain uptake, cortex): 0.792 ± 0.096 %ID/g
tissue uptake at 20 min ([1]; cortex, 20 min, pretreated with TBZ 3 min before, n = 2, read-out: Regional brain uptake, cortex): 0.585 ± 0.067 %ID/g
tissue uptake at 5 min ([1]; hippocampus, 5 min, read-out: Regional brain uptake, hippocampus): 0.725 ± 0.066 %ID/g
tissue uptake at 20 min ([1]; hippocampus, 20 min, pretreated with TBZ 3 min before, n = 2, read-out: Regional brain uptake, hippocampus): 0.581 ± 0.075 %ID/g
tissue uptake at 5 min ([1]; striatum, 5 min, read-out: Regional brain uptake, striatum): 0.77 ± 0.019 %ID/g
tissue uptake at 20 min ([1]; striatum, 20 min, pretreated with TBZ 3 min before, n = 2, read-out: Regional brain uptake, striatum): 0.596 %ID/g
fraction unbound at 0.5 h [2]: 0.619
fraction unbound at 0.5 h [3]: 0.182
Brain uptake ([4]; 2 min): 1.2 % Dose/organ
Blood uptake (blood assumed 7% of body weight) ([4]; 5 min): 2.15 ± 0.11 % Dose/organ
Br/Bl (% dose/gram ratio) ([4]; 5 min): 5.51 ± 0.37
Brain uptake ([4]; 5 min): 1.12 ± 0.15 % Dose/organ
Heart uptake ([4]; 5 min): 0.91 ± 0.17 % Dose/organ
Kidney uptake ([4]; 5 min): 4.43 ± 0.56 % Dose/organ
Liver uptake ([4]; 5 min): 21.23 ± 2.66 % Dose/organ
Lung uptake ([4]; 5 min): 2.85 ± 0.52 % Dose/organ
Muscle uptake (muscle assumed 40% of body weight) ([4]; 5 min): 11.96 ± 1.56 % Dose/organ
Skin uptake ([4]; 5 min): 8.72 ± 1.52 % Dose/organ
Spleen uptake ([4]; 5 min): 0.62 ± 0.13 % Dose/organ
Thyroid uptake ([4]; 5 min): 0.08 ± 0.01 % Dose/organ
Blood uptake (blood assumed 7% of body weight) ([4]; 20 min): 1.42 ± 0.56 % Dose/organ
Br/Bl (% dose/gram ratio) ([4]; 20 min): 4.59 ± 1.10
Brain uptake ([4]; 20 min): 0.58 ± 0.01 % Dose/organ
Heart uptake ([4]; 20 min): 0.49 ± 0.04 % Dose/organ
Kidney uptake ([4]; 20 min): 2.21 ± 0.11 % Dose/organ
Liver uptake ([4]; 20 min): 16.16 ± 4.71 % Dose/organ
Lung uptake ([4]; 20 min): 1.65 ± 0.11 % Dose/organ
Muscle uptake (muscle assumed 40% of body weight) ([4]; 20 min): 26.79 ± 7.14 % Dose/organ
Skin uptake ([4]; 20 min): 9.00 ± 5.10 % Dose/organ
Spleen uptake ([4]; 20 min): 0.44 ± 0.06 % Dose/organ
Thyroid uptake ([4]; 20 min): 0.05 ± 0.01 % Dose/organ
Blood uptake (blood assumed 7% of body weight) [4, 5]: 2.05 ± 0.21 % Dose/organ
Br/Bl (% dose/gram ratio) [4, 5]: 4.10 ± 0.27
Brain uptake [4, 5]: 0.85 ± 0.12 % Dose/organ
Heart uptake [4, 5]: 0.61 ± 0.11 % Dose/organ
Kidney uptake [4, 5]: 2.03 ± 0.24 % Dose/organ
Liver uptake [4, 5]: 13.34 ± 4.06 % Dose/organ
Lung uptake [4, 5]: 1.74 ± 0.002 % Dose/organ
Muscle uptake (muscle assumed 40% of body weight) [4, 5]: 29.70 ± 2.56 % Dose/organ
Skin uptake [4, 5]: 7.08 ± 2.33 % Dose/organ
Spleen uptake [4, 5]: 0.06 ± 0.07 % Dose/organ
Thyroid uptake [4, 5]: 0.08 ± 0.01 % Dose/organ
Blood uptake (blood assumed 7% of body weight) ([4]; 60 min): 1.14 ± 0.16 % Dose/organ
Br/Bl (% dose/gram ratio) ([4]; 60 min): 3.05 ± 0.12
Brain uptake ([4]; 60 min): 0.33 ± 0.07 % Dose/organ
Heart uptake ([4]; 60 min): 0.38 ± 0.07 % Dose/organ
Kidney uptake ([4]; 60 min): 1.52 ± 0.28 % Dose/organ
Liver uptake ([4]; 60 min): 10.12 ± 1.26 % Dose/organ
Lung uptake ([4]; 60 min): 1.17 ± 0.06 % Dose/organ
Muscle uptake (muscle assumed 40% of body weight) ([4]; 60 min): 21.88 ± 2.74 % Dose/organ
Skin uptake ([4]; 60 min): 14.76 ± 4.35 % Dose/organ
Spleen uptake ([4]; 60 min): 0.36 ± 0.04 % Dose/organ
Thyroid uptake ([4]; 60 min): 0.07 ± 0.01 % Dose/organ
Blood uptake (blood assumed 7% of body weight) ([4]; 120 min): 0.95 ± 0.03 % Dose/organ
Br/Bl (% dose/gram ratio) ([4]; 120 min): 1.96 ± 0.43
Brain uptake ([4]; 120 min): 0.18 ± 0.04 % Dose/organ
Heart uptake ([4]; 120 min): 0.26 ± 0.03 % Dose/organ
Kidney uptake ([4]; 120 min): 1.05 ± 0.1q
Liver uptake ([4]; 120 min): 7.54 ± 0.77 % Dose/organ
Lung uptake ([4]; 120 min): 0.81 ± 0.14 % Dose/organ
Muscle uptake (muscle assumed 40% of body weight) ([4]; 120 min): 18.56 ± 2.34 % Dose/organ
Skin uptake ([4]; 120 min): 11.22 ± 3.92 % Dose/organ
Spleen uptake ([4]; 120 min): 0.23 ± 0.04 % Dose/organ
Thyroid uptake ([4]; 120 min): 0.07 ± 0.05 % Dose/organ
